Data reported in patent US20120010075A1 (priority 2009, published 2012).
Like-named read-outs stand apart in the source and are kept apart here.

Key:
[1] = test system: Leptosphaeria nodorum (LEPTNO); test: In vitro fungitoxicity of hydrazones with and without copper towards Leptosphaeria nodorum (Example 26); format: cell-based; settings: 72 h at 25° C.
Phytophthora capsici = test: In vitro fungitoxicity of hydrazones with and without copper towards Phytophthora capsici (Example 28, Table 3); format: cell-based; settings: for % Inhn Plus copper Observed: copper-plus AS medium (CuCl2, 50 μM)
Phytophthora infestans = format: in vivo, Phytophthora infestans on tomato; settings: applied 24 h before inoculation, assessed 7 days after inoculation
[2] = Parastagonospora nodorum, 72 h, compound 0.05 μg/mL, copper-minus medium, read-out: LEPTNO % Inhn. Minus Copper Observed
[3] = compound 0.05 μg/mL, copper-plus medium (CuCl2.2H2O)
[4] = Phytophthora capsici, 0.039 μg/mL, copper-minus AS medium, 48 h, read-out: % Inhn Minus copper Observed
[5] = hydrazone 50 ppm + 50 μM CuCl2.2H2O, tomato
[6] = compound 0.05 μg/mL, copper-minus medium
[7] = Parastagonospora nodorum, 72 h, copper-minus medium, test compound Concn. 0.05 μg/mL, read-out: LEPTNO % Inhn. Minus Copper Observed
[8] = copper-plus medium (CuCl2 10 μM), test compound Concn. 0.05 μg/mL
[9] = hydrazone 50 ppm with 50 μM CuCl2.2H2O, tomato late blight

| SMILES | inhibition of growth at 0.05 µg/mL [1, 2] | LEPTNO % Inhn. Plus Copper Observed [1, 3] | % Inhn Plus copper Observed (Phytophthora capsici; 0.039 μg/mL, 48 h) | inhibition of growth at 0.039 µg/mL (Phytophthora capsici; [4]) | TLB % Control (Phytophthora infestans; [5]) | melting point | also measured |
| --- | --- | --- | --- | --- | --- | --- | --- |
| O=C(N/N=C/c1ccccc1O)c1ccccc1O [Example 1] | 0.7% | 96.2% | 87.2% | 9.7% | 64.0% |  |  |
| CNc1ccccc1C(=O)N/N=C/c1ccccc1O [Example 3] | 2.3% | 93.0% | 88.5% | 0% | 47.0% |  |  |
| O=C(CCc1cc(Br)c(O)c(Br)c1)N/N=C/c1cc(Cl)cc(Cl)c1O [Example 5] | 4.8% | 56.1% | 93.9% | 18.6% | 22.0% |  |  |
| O=C(N/N=C/c1cc(Cl)cc(Cl)c1O)c1ccc2c(c1)OCO2 [Example 6] | 3.9% | 96.4% | 95.8% | 28.8% | 88.1% |  |  |
| Cc1ccc(/C=N/NC(=O)c2ccc(C(C)C)cc2)c(O)c1 [Example 14] |  |  | 87.2% | 0% | 7.5% |  | inhibition of growth at 0.156 µg/mL ([1]; Parastagonospora nodorum, 72 h, compound 0.156 μg/mL, copper-minus medium, read-out: LEPTNO % Inhn. Minus Copper Observed): 2.9%; LEPTNO % Inhn. Plus Copper Observed ([1]; compound 0.156 μg/mL, copper-plus medium (CuCl2.2H2O)): 59.1% |
| O=C(N/N=C/c1cccc(F)c1O)c1ccccc1 [Example 15] |  | 96.6% | 91.8% |  | 58.5% | 197 to 198 °C | LEPTNO % Inhn. Minus Copper Observed [1, 6]: 4.4%; % Inhn Plus copper Predicted (Phytophthora capsici; 0.039 μg/mL, Colby formula, CuCl2, 50 μM): 81.2%; % Inhn Minus copper Observed (Phytophthora capsici; 0.039 μg/mL, copper-minus AS medium, 48 h): 80.4% |
| CCOc1ccc(C(=O)N/N=C/c2ccccc2O)cc1 [Example 21] | 0.1% | 94.1% | 90.0% | 0% | 65.5% |  |  |
| Cc1ccc(C(=O)N/N=C/c2cc(Br)cc(Br)c2O)c(C)c1 [Example 28] |  | 96.8% | 93.8% | 11.4% | 62.7% |  | LEPTNO % Inhn. Minus Copper Observed [1, 6]: 7.0% |
| Oc1c(Cl)cc(Cl)cc1/C=N/NC(=S)c1ccccc1 [Example 52] |  |  | 91.2% | 40.6% |  |  | inhibition of growth at 0.2 µg/mL ([1]; Parastagonospora nodorum, 72 h, compound 0.2 μg/mL, copper-minus medium, read-out: LEPTNO % Inhn. Minus Copper Observed): 12.3%; LEPTNO % Inhn. Plus Copper Observed ([1]; compound 0.2 μg/mL, copper-plus medium (CuCl2.2H2O)): 96.4% |
| O=C(N/N=C/c1ccccc1O)c1cccc(C(F)(F)F)c1 [Example 61] | 3.8% | 93.6% | 95.6% | 17.6% | 60.0% |  |  |
| O=C(N/N=C/c1cc(Cl)cc(Cl)c1O)c1ccc(-c2ccccc2)cc1 [Example 74] | 3% | 95.7% |  |  | 63.6% |  | % Inhn Plus copper Observed (Phytophthora capsici; 5 μg/mL, 48 h): 89.4%; inhibition of growth at 5 µg/mL (Phytophthora capsici; Phytophthora capsici, 5 μg/mL, copper-minus AS medium, 48 h, read-out: % Inhn Minus copper Observed): 17.2% |
| Nc1ccccc1C(=O)N/N=C/c1cc(Cl)cc(Cl)c1O [Example 91] | 0% | 79.3% | 93.2% | 52.1% | 18.0% |  |  |
| O=C(N/N=C/c1cc(Cl)cc(Cl)c1O)c1ccccc1F [Example 101] | 7.8% | 97.3% | 88.2% | 70% | 85.3% |  |  |
| O=C(N/N=C/c1cc(Br)cc(Br)c1O)c1cccc(F)c1 [Example 119] | 2.2% | 95.7% | 95.1% | 37.9% | 91.9% |  |  |
| O=C(Cc1ccc(Cl)cc1)N/N=C/c1cc(Cl)cc(Cl)c1O [Example 123] | 7.5% | 95.5% | 94.8% | 16.3% | 71.0% |  |  |
| O=C(Cc1ccccc1)N/N=C/c1cc(Br)cc(Br)c1O [Example 124] | 0% | 88.2% | 89.7% | 25% | 23.0% |  |  |
| O=C(Cc1ccccc1)N/N=C/c1cc(Cl)cc(Cl)c1O [Example 125] | 2.4% | 94.4% | 89.4% | 66.6% | 87.0% |  |  |

| SMILES | inhibition of growth at 0.05 µg/mL [1, 2] | LEPTNO % Inhn. Plus Copper Observed [1, 3] | % Inhn Plus copper Observed (Phytophthora capsici; 0.039 μg/mL, 48 h) | inhibition of growth at 0.039 µg/mL (Phytophthora capsici; [4]) | TLB % Control (Phytophthora infestans; [5]) | melting point | also measured |
| --- | --- | --- | --- | --- | --- | --- | --- |
| C/C(=N\NC(=O)CCc1ccccc1)c1ccccc1O [Example 131] | 0% | 96.8% | 93.7% | 5.6% | 62.0% |  |  |
| C=CCc1cccc(/C=N/NC(=O)c2ccccc2)c1O [Example 143] | 2.1% | 98.2% | 94.5% | 6% | 64.4% |  |  |
| O=C(N/N=C/c1cc(I)cc(I)c1O)c1ccccc1 [Example 146] | 0% | 96.2% | 91.4% | 11.8% | 71.2% |  |  |
| O=C(N/N=C/c1ccccc1O)c1cccc(Br)c1 [Example 182] | 0% | 97.6% | 90.9% | 25.9% | 74.6% |  |  |
| O=C(N/N=C/c1ccccc1O)c1ccc(-c2ccccc2)cc1 [Example 183] | 0% | 96.7% | 88.9% | 0% | 66.7% |  |  |
| COc1ccc(O)c(/C=N/NC(=O)c2ccc(Cl)cc2)c1 [Example 207] | 0% | 95.3% | 88.9% | 0% | 52.7% |  |  |
| O=C(Cc1ccccc1)N/N=C/c1cc(Cl)cc(Br)c1O [Example 210] | 1.9% | 94.1% | 92.7% | 36.6% | 37.0% |  |  |
| C/C(=N\NC(=O)c1ccccc1Br)c1cc(F)cc(F)c1O [Example 582] |  |  |  |  |  | 190 to 195 °C | inhibition of growth at 0.05 µg/mL [1, 7]: 12.2%; LEPTNO % Inhn. Plus Copper Observed [1, 8]: 97.8%; TLB % Control (Phytophthora infestans; [9]): 94.0% |
| C/C(=N\NC(=O)c1ccccc1O)c1cc(F)cc(F)c1O [Example 583] |  |  |  |  |  | 308 to 323 °C | inhibition of growth at 0.05 µg/mL [1, 7]: 13.2%; LEPTNO % Inhn. Plus Copper Observed [1, 8]: 98.0%; TLB % Control (Phytophthora infestans; [9]): 100.0% |
| COc1cc(O)c(/C(C)=N/NC(=O)c2ccccc2C)c(OC)c1 [Example 584] |  |  |  |  |  | 269 to 274 °C | inhibition of growth at 0.05 µg/mL [1, 7]: 3%; LEPTNO % Inhn. Plus Copper Observed [1, 8]: 11.8%; TLB % Control (Phytophthora infestans; [9]): 7.6% |
| COc1cc(O)c(/C(C)=N/NC(=O)c2cccc(C)c2)c(OC)c1 [Example 585] |  |  |  |  |  | 207 to 209 °C | inhibition of growth at 0.05 µg/mL [1, 7]: 6.3%; LEPTNO % Inhn. Plus Copper Observed [1, 8]: 86.3%; TLB % Control (Phytophthora infestans; [9]): 62.0% |
| COc1cc(O)c(/C(C)=N/NC(=O)c2ccccc2O)c(OC)c1 [Example 586] |  |  |  |  |  | 182 to 199 °C | inhibition of growth at 0.05 µg/mL [1, 7]: 0%; LEPTNO % Inhn. Plus Copper Observed [1, 8]: 87.3%; TLB % Control (Phytophthora infestans; [9]): 31.0% |
| O=C(N/N=C(/c1cc(Cl)cc(Cl)c1O)C(F)(F)F)c1ccccc1 [Example 587] |  |  |  |  |  | 195 to 196 °C | inhibition of growth at 0.05 µg/mL [1, 7]: 6.2%; LEPTNO % Inhn. Plus Copper Observed [1, 8]: 96.6%; TLB % Control (Phytophthora infestans; [9]): 2.4% |
| O=C(N/N=C(/c1cc(Cl)cc(Cl)c1O)C1CC1)c1ccccc1 [Example 589] |  |  |  |  |  | 218 to 219 °C | inhibition of growth at 0.05 µg/mL [1, 7]: 8.7%; LEPTNO % Inhn. Plus Copper Observed [1, 8]: 97.9%; TLB % Control (Phytophthora infestans; [9]): 61.0% |
| CC/C(=N\NC(=O)c1ccccc1)c1cc(Cl)cc(Cl)c1O [Example 590] |  |  |  |  |  | 214 to 215 °C | inhibition of growth at 0.05 µg/mL [1, 7]: 10%; LEPTNO % Inhn. Plus Copper Observed [1, 8]: 98.6%; TLB % Control (Phytophthora infestans; [9]): 88.0% |
| O=C(N/N=C(/c1ccccc1O)C(F)(F)F)c1ccccc1 [Example 591] |  |  |  |  |  | 208 to 210 °C | inhibition of growth at 0.05 µg/mL [1, 7]: 0%; LEPTNO % Inhn. Plus Copper Observed [1, 8]: 9.9%; TLB % Control (Phytophthora infestans; [9]): 11.0% |
| CC(C)(C)/C(=N\NC(=O)c1ccccc1)c1ccccc1O [Example 592] |  |  |  |  |  | 241 to 243 °C | inhibition of growth at 0.05 µg/mL [1, 7]: 0%; LEPTNO % Inhn. Plus Copper Observed [1, 8]: 25.4%; TLB % Control (Phytophthora infestans; [9]): 1.4% |
